# Molecular target: T1, MLXBIR3SG (Homo sapiens, UniProt Q96CA5, S150G)
# T1 construct: His6 tag (MGSSHHHHHH, followed by linker with LVPRGS thrombin site) (N)
# T1 sequence (Q96CA5 with tags, fused parts or gaps S150G): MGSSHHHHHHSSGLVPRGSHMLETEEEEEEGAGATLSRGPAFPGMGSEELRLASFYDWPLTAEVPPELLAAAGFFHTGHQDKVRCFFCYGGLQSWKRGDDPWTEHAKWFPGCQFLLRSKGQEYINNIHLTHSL
# Assay: Fluorescence Polarization Peptide Binding Assay (competition with AVP-diPhe-FAM probe)
# Details: MLXBIR3SG at 30 nM, 5 nM AVP-diPhe-FAM probe, Ki determined from IC50 values, unit inferred
# Protocol: In the following experiments was used a chimeric BIR domain referred to as MLXBIR3SG in which 11 of 110 residues correspond to those found in XIAP-BIR3, while the remainder correspond to ML-IAP-BIR. […] The improved caspase-9 inhibition of the chimeric BIR domain MLXBIR3SG has been correlated with increased inhibition of doxorubicin-induced apoptosis when transfected into MCF7 cells.
# Polarization experiments were performed on an Analyst HT 96-384 (Molecular Devices Corp.) according to the procedure of Keating, S. M., Marsters, J, Beresini, M., Ladner, C., Zioncheck, K., Clark, K., Arellano, F., and Bodary., S. (2000) in Proceedings of SPIE: In Vitro Diagnostic Instrumentation (Cohn, G. E., Ed.) pp 128-137, Bellingham, Wash. Samples for fluorescence polarization affinity measurements were prepared by addition of 1:2 serial dilutions starting at a final concentration of 5 μM of MLXBIR3SG in polarization buffer (50 mM Tris [pH 7.2], 120 mM NaCl, 1% bovine globulins 5 mM DTT and 0.05% octylglucoside) to 5-carboxyflourescein-conjugated AVPdi-Phe-NH2 (AVP-diPhe-FAM) at 5 nM final concentration.
# The reactions were read after an incubation time of 10 minutes at room temperature with standard cut-off filters for the fluorescein fluorophore (λex=485 nm; λem=530 nm) in 96-well black HE96 plates (Molecular Devices Corp.). Fluorescence values were plotted as a function of the protein concentration, and the IC50s were obtained by fitting the data to a 4-parameter equation using Kaleidograph software (Synergy software, Reading, Pa.). Competition experiments were performed by addition of the MLXBIR3SG at 30 nM to wells containing 5 nM of the AVP-diPhe-FAM probe as well as 1:3 serial dilutions of antagonist compounds starting at a concentration of 300 μM in the polarization buffer. Samples were read after a 10-minute incubation. Fluorescence polarization values were plotted as a function of the antagonist concentration, and the IC50 values were obtained by fitting the data to a 4-parameter equation using Kaleidograph software (Synergy software, Reading, Pa.). Inhibition constants (Ki) for the antagonists were determined from the IC50 values.
row,Ki [nM],Structure (SMILES)
1,7870,C[C@@H](NCCO)C(=O)N[C@H](C(=O)N1CCC[C@H]1c1nc2c(-c3ccccc3)nccc2s1)C1CCCCC1 [compound 48]
2,55.6,C[C@H](NCCO)C(=O)N[C@H](C(=O)N1CCC[C@H]1c1nc2c(-c3ccccc3)nccc2s1)c1ccccc1 [compound 54]
3,145,C[C@H](NCCO)C(=O)N[C@H](C(=O)N1CCC[C@H]1c1nc2c(-c3ccccc3)ccnc2s1)C1CCCCC1 [compound 60]
4,33.8,CN[C@@H](C)C(=O)N[C@H](C(=O)N1CCC[C@H]1c1nc2c(-c3ccccc3)ncnc2s1)C1CCN(C(=O)COC)CC1 [compound 56]
